Laboratory results taken from ChEMBL document CHEMBL3507680, “University of Dundee, Gates Library screen for HepG2 cell viability”.

Assay: Human HepG2 cell viability assay in 384 well format
Format: toxicity, cell-based
Set-up: dose 125 nL, time 70.5 hour; concentration not given beside the values
Conditions: HepG2 cells, read-out: Inhibition

Row | SMILES | cytotoxicity at 70.5 h
1 | Cn1cc(CN2C[C@@H]3COC[C@]3(COc3ccc(C#N)cn3)C2)cn1 | -10.6%
2 | Cc1ncsc1CN1C[C@@H]2COC[C@]2(COc2ccc(C#N)cn2)C1 | -4.4%
3 | COCCC(=O)N1CCC2(CN(Cc3ccc(OC)c(F)c3)C2)C1 | -9.17%
4 | COC[C@@]12CCO[C@@H]1CCN(C(=O)Cc1ccccc1F)C2 | -10.5%
5 | COc1nn(C)c2c1CCCN(C(=O)c1ccccc1)C2 | -5.54%
6 | C[C@H]1C[C@H]2CN(C(=O)c3ccncn3)CC[C@H]2O1 | -0.543%
7 | O=C(Cc1cccs1)N1C[C@@H]2COC[C@]2(COc2cccnc2)C1 | -1.72%
8 | CC(C)CC(=O)N1CCN(C(=O)N(C)C)CC2(CC(=O)N(C)C2)C1 (stereo not given) | 0.114%
9 | Cn1cc(-c2cnc(N3CCOCC3)nc2)cc1C(=O)O | -2.63%
10 | CN1C[C@H]2CCN(C(=O)NC3CCCC3)CC[C@H]2S1(=O)=O | -17.8%
11 | Cc1ncc(CN2CCc3nc4cc(C(C)(C)C)nn4c(O)c3C2)n1C | 7.3%
12 | Fc1ccc2[nH]c3c(c2c1)CCN1C(c2ccccn2)N2CCC31CC2 (stereo not given) | 19%
13 | CC1CCc2nn(CCNC(=O)c3cccs3)c(=O)cc2C1 (stereo not given) | 25.2%
14 | CS(=O)(=O)N1CCC(Cc2cnc(Br)cn2)CC1 | -5.81%
15 | Cn1cncc1CN1CCOC(Cc2ccccc2)C1 (stereo not given) | -8.78%
16 | CC(=O)N1CCC(c2cncc(N3CCC(O)C3)n2)CC1 (stereo not given) | -2.45%
17 | Cc1nn(CC(C)C)cc1S(=O)(=O)N(C)Cc1nonc1C | 0.131%
18 | CCCn1cc(S(=O)(=O)N(C)Cc2nonc2C)c(C)n1 | -3.71%
19 | CN(C)C(c1ccccn1)[C@H]1CC[C@H](CNC(=O)C2CC2)CC1 (stereo not given in full) | 1.46%
20 | COCCC(=O)NC[C@H]1CC[C@H](C(c2ccccn2)N(C)C)CC1 (stereo not given in full) | -2.06%
21 | CC(C)c1[nH]c2ncccc2c1CN1CCC(O)CC1 | -3.13%
22 | CCC1c2ccsc2CCN1Cc1cc2c(cc1OC)OCCO2 (stereo not given) | 1.24%

Row | SMILES | cytotoxicity at 70.5 h
23 | CCN(CC)CCCNCc1cc2cc(C)cc(C)c2[nH]c1=O | 3.4%
24 | CN(C)C(=O)Cn1c(C2CC2)c(CN2CCSCC2)c2cccnc21 | 1.03%
25 | Cc1ccn(CCNC(=O)C2(C)CC(c3ccccc3)=NO2)n1 (stereo not given) | -1.48%
26 | CCc1nc(N2CCOCC2)ncc1C(=O)NC(c1cccs1)C(C)C (stereo not given) | -0.678%
27 | Cc1nccn1CCNC(=O)C1(C)CC(c2ccccc2)=NO1 (stereo not given) | -3.18%
28 | Cc1cccc(C2(O)CCN(Cc3ccccc3N3CCCC3)CC2)c1 | 16.9%
29 | Cc1cc(NCCNS(=O)(=O)c2cn(C)nc2C)c2ccccc2n1 | 13.5%
30 | Oc1cc(-c2ccccn2)nc(C2CCN(Cc3ccncc3)CC2)n1 | 16.5%
31 | CC(=O)N1C[C@H]2CCCN(S(=O)(=O)c3ccc(Cl)s3)[C@H]2C1 | 44.3%
32 | CC(C)c1[nH]c2ncccc2c1CN1CCN(S(=O)(=O)N(C)C)CC1 | -7.69%
33 | COCCCNS(=O)(=O)c1ccc2c(c1)NC(=O)C(C)O2 (stereo not given) | 1.94%
34 | CCN(CC)CCCNCc1cc2cccc(C)c2[nH]c1=O | -4.69%
35 | CC(C)c1ccc(CN[C@@H]2COC[C@H]2c2ccc(F)cc2)cc1 | -5.3%
36 | CNc1nccnc1C1CN(C(=O)c2cc[nH]n2)CCO1 (stereo not given) | -4.96%
37 | Cn1nc(C2CNCCO2)cc1CCOc1cccc(C(F)(F)F)c1 (stereo not given) | 7.31%
38 | CCCc1cc(C(=O)N[C@@H]2CC[C@@H](N3CCOCC3)[C@@H]2O)no1 | -5.49%
39 | CCc1cc(C(=O)N[C@@H]2CC[C@@H](N3CCOCC3)[C@@H]2O)no1 | -4.39%
40 | Cc1n[nH]c(C)c1CCC(=O)NCC1(O)CCN(c2ccccn2)C1 (stereo not given) | -1.98%
41 | Cn1nc(C2CNCCO2)cc1CCOc1ccc(C(F)(F)F)cc1 (stereo not given) | -1.52%
42 | Cc1cnc(CC2COCCN(C(=O)CN3CCCCC3)C2)cn1 (stereo not given) | -2.32%
43 | Cn1ccnc1CN1CCOC(Cc2ccccc2)C1 (stereo not given) | -3.39%
44 | CC(=O)N1CCC(c2cncc(N3CCOCC3)n2)CC1 | -8.68%

Row | SMILES | cytotoxicity at 70.5 h
45 | c1cncc(CN2CC(Cc3nccc4cc[nH]c34)C2)c1 | -3.48%
46 | CC(=O)N1CCC(c2cncc(Cl)n2)CC1 | 2.82%
47 | Cc1ncncc1C(=O)N1CCOC(C(=O)NC2CCCC2)C1 (stereo not given) | -1.76%
48 | Oc1cc(-c2ccsc2)nc(C2CCN(Cc3cccnc3)CC2)n1 | -5.93%
49 | Cc1cc(C2CCN(S(=O)(=O)N(C)C)CC2)ccn1 | 12.7%
50 | COc1ccc(C2CNCCN2C(=O)c2cccc3cccnc23)cc1 (stereo not given) | 12.4%
51 | COc1ccc(C2CNCCN2C(=O)c2nccc3ccccc23)cc1 (stereo not given) | 5.97%
52 | COc1ccc(C2CNCCN2C(=O)c2cccc3ncccc23)cc1 (stereo not given) | -3.21%
53 | CNc1ncc(C(=O)N2CCOC(C(=O)N3CCCCCC3)C2)cn1 (stereo not given) | -2.75%
54 | COCCC(=O)N1C[C@@H](c2ccc(F)c(F)c2)[C@@]2(CCCC(=O)N2)C1 | -1.65%
55 | CNc1nc(C2CCCN(C(=O)C3CCCCC3)C2)nc2c1CNCC2 (stereo not given) | -3.63%
56 | CNc1nccnc1C1CN(C(=O)c2c[nH]cn2)CCO1 (stereo not given) | 3.73%
57 | c1ccc2ncc(CC3CNCCOC3)cc2c1 (stereo not given) | -0.7%
58 | CN1CCCC(c2cccc(-c3cccc(C(F)(F)F)c3)n2)C1 (stereo not given) | -2.8%
59 | CC(=O)N1CCCC1c1nc(C)c2c(n1)N(Cc1ccccn1)CCC2 (stereo not given) | -8.03%
60 | CNC(=O)C1CN(Cc2cc(C)on2)CCN(C(C)=O)C1 (stereo not given) | -9.11%
61 | CN1CCCC1c1cncc(C(=O)NCCN2CCCCC2)n1 (stereo not given) | -8.33%
62 | CC(C)c1nnc(CCC(=O)N2CCCC(c3cnccn3)C2)o1 (stereo not given) | -9.44%
63 | CNC(=O)c1cnc(C)nc1CCNC(=O)CCc1ccccc1 | 7.59%
64 | NC(=O)c1cnc(NC2CC2)nc1CCNC(=O)Cc1ccccc1 | -5.85%
65 | COc1ccc(F)cc1C(=O)N(C)[C@@H]1CC[C@@H](O)[C@@H]1O | -9.84%
66 | COCc1ccc(OC)c(CNC2CCCNC2=O)c1 (stereo not given) | -8.49%

Row | SMILES | cytotoxicity at 70.5 h
67 | CC(=O)N1CCC(Cc2cnc(Nc3cc(C)on3)cn2)CC1 | -4.74%
68 | Cc1ncsc1C(=O)N1CCC(c2ncncc2-c2ccnc(N)c2)C1 (stereo not given) | -7%
69 | COc1ccccc1NC(=O)C1(c2ccccc2)CCOCC1 | -6.73%
70 | O=C(NCCO)c1sc2ncccc2c1C1CNCCO1 (stereo not given) | -4.56%
71 | c1cncc(CNc2cncc(C3CCCN3)n2)c1 (stereo not given) | -8.46%
72 | CC1CCCN(Cc2c(C3CC3)n(CC(=O)N(C)C)c3ncccc23)C1 (stereo not given) | 27.3%
73 | Cc1cnc(CCNc2cccc(CC3CCCNC3)n2)s1 (stereo not given) | 0.312%
74 | CCN(CC)C(=O)CN1CCc2nc(C3CCNCC3)nc(NC)c2C1 | -4.13%
75 | Cc1cc(Oc2ccccc2F)nc(C2CCCCN2)n1 (stereo not given) | -6.21%
76 | CC(=O)N1CCN(c2cc(C3CCNCC3)ccn2)CC1 | -1.18%
77 | Cc1nc(C2CCCNC2)nc2c1CCCN2Cc1ccccn1 (stereo not given) | -3.47%
78 | COCc1nn(C(C)C)c2c1CCN(Cc1cccs1)C2 | -6.03%
79 | c1cncc(-c2ccc3c(c2)C2(CC3)CCN(c3nncs3)CC2)c1 | -13.1%
80 | c1nc2c(c(C3CC3)n1)CCN(Cc1ccc3c(c1)OCO3)CC2 | -4.69%
81 | CN(Cc1ccco1)[C@@H]1CN(C(=O)c2ccnnc2)C[C@@H]2CCCO[C@@H]21 | -7.61%
82 | O=C(C1=CCCC1)N1CCC[C@]2(C[C@@H](Oc3ncccc3F)CO2)C1 | -6.43%
83 | CN(Cc1ccco1)[C@@H]1CN(C(=O)c2ccnnc2)[C@@H]2CCCO[C@H]12 | 1.48%
84 | CCO[C@@H]1CO[C@@]2(CCCN(Cc3scnc3C)C2)C1 | -11.1%
85 | CCO[C@H]1CO[C@@]2(CCCN(Cc3nc(C)cs3)C2)C1 | -10.1%
86 | CCCS(=O)(=O)N1CCC2(CN(c3cnn(C)c3)C(=O)CN2C)C1 (stereo not given) | 0.667%
87 | C1CC(CN2CCO[C@H]3[C@H](OCC4CC4)CC[C@@H]32)CCO1 | -2.31%
88 | O=C1[C@H]2CN(c3ncccn3)C[C@H]2CN1Cc1ccncc1 | 3.36%

Row | SMILES | cytotoxicity at 70.5 h
89 | Cn1cc(C(=O)NCc2cn3c(n2)CN(CC2CCOCC2)CC3)cn1 | -1.1%
90 | CN(C)C(=O)CC1CC2(CCN(c3ncccn3)CC2)c2ccccc21 (stereo not given) | -0.293%
91 | COCC1COCCC12CCN(CCc1ccccc1)CC2 (stereo not given) | -0.938%
92 | CCn1cc2c(n1)CN(Cc1ccoc1)CC2COCC1CC1 (stereo not given) | 6.36%
93 | CN1CC(=O)N(c2ccsc2)CC12CCN(S(C)(=O)=O)C2 (stereo not given) | 1.05%
94 | O=C(Nc1cnccn1)[C@@H]1COC[C@H]2CN(C3CCCC3)C[C@H]21 | -3.18%
95 | COCCN1CC[C@@H](O)[C@@H]1Cc1ccccc1 | -16.9%
96 | CCCS(=O)(=O)N1CCOCC2(CCN(c3ccccn3)C2)C1 (stereo not given) | -11.6%
97 | COC[C@H]1CCC[C@]12CN(CCc1ccccc1)CCO2 | -15.8%
98 | CN1CC(=O)N(c2cnn(C)c2)CC12CCN(Cc1ccccc1)C2 (stereo not given) | 0.248%
99 | Cc1nc(CN2CCOCC3(CCN(c4ncccn4)C3)C2)cs1 (stereo not given) | -3.76%
100 | O=C(Nc1cccnc1)[C@H]1COC[C@H]2CN(C3CCCC3)C[C@H]21 | 3.49%
101 | Cn1cc(CN2CCc3onc(COc4cccnc4)c3C2)cn1 | 14.8%
102 | COc1ncccc1CN1C[C@@H]2COC[C@]2(COCC2CC2)C1 | -11.6%
103 | O=C(C[C@@H]1COC[C@H]2CN(Cc3ccncc3)C[C@@H]12)N1CCOCC1 | -13.2%
104 | c1ccc(OCC2CC3(CCN(c4ncccn4)CC3)CO2)nc1 (stereo not given) | -19.6%
105 | CO[C@H]1CCN(Cc2cccc(C)n2)[C@@H]2CN(Cc3cccnc3)C[C@H]12 | 1.87%
106 | CCCSc1ncc(CN(C)CCN2CCCCC2)cn1 | -2.41%
107 | Cn1cncc1CN1CCC(O)(Cn2nc(-c3cccs3)oc2=O)CC1 | -2.36%
108 | Cc1ccc(CN[C@@H]2COC[C@H]2c2ccc(F)cc2)cc1C | 3.52%
109 | CCOc1ccc(CN[C@@H]2COC[C@H]2c2ccc(F)cc2)cc1 | 29.1%
110 | OCCN(Cc1ccncc1)CC1(c2ccc(Cl)cc2)CCCC1 | 1.74%
